According to US20120115754A1, “METHOD FOR DIAGNOSING AND/OR TYPING RENAL CELL CARCINOMA” (priority 2009, published 2012):

How the values were obtained:
[1] = system: tumor kidney (RCC) tissue lysate, tyrosine kinase activity; assay: Peptide microarray (PamChip) kinase activity profiling of tumor kidney lysate with kinase inhibitor added to the lysate; assay type: biochemical, human
Procedure: (§1) Both normal and tumor kidney tissue were derived from resection material immediately after surgery. These tissues were snap-frozen and were stored at −85° C. The tissues were cut in slices of 10 μm and stored. For protein extraction 6 slices were lysed in 100 μL of Mammalian Protein Extraction Buffer (M-PER), a lysis buffer containing HALT protease and phosphatase inhibitors, for 60 minutes on ice. The protein concentration was determined for each sample and for the analysis on a peptide microarray comprising 144 peptides typically 5 μg of protein was used. […]
(§2) To assess the effect of a kinase inhibitor, the kinase inhibitors sorafinib or sunitinib were added to the lysate before application onto the peptide microarray. During 60 cycles of pumping the lysate reaction mixture through the array, peptide phosphorylation was detected by the fluorescently labelled PY20 anti-phosphotyrosine antibody present in the lysate reaction mixture. Real time data were obtained by measuring fluorescence of the bound anti-phosphotyrosine antibody after each 5 cycles. […] Signals for each spot on the image were quantified. Image quantification and data processing was conducted with dedicated PamGene software (Evolve and Bionavigator). […]

[2] = system: normal kidney tissue (NK) lysate, tyrosine kinase activity; assay: Peptide microarray (PamChip) kinase activity profiling of normal kidney lysate with kinase inhibitor added to the lysate; assay type: biochemical, human
Procedure: as §1, §2

phosphorylation pattern compared to the control (DMSO) ([1]; lysate of tumor kidney (RCC) tissue of one patient, inhibitor pipetted into lysate, FIG. 4 heatmap): decreased phosphorylation pattern | inhibition of peptide phosphorylation, peptides indicated by downwards arrows ([1]; tumor tissue, on-chip treatment, in comparison to other peptides, FIG. 4): highly inhibited | phosphorylation pattern compared to the control (DMSO) ([2]; lysate of normal kidney tissue (NK) of one patient, inhibitor pipetted into lysate, FIG. 4 heatmap): decreased phosphorylation pattern | inhibition of peptide phosphorylation, peptides indicated by upward arrows ([2]; normal tissue, on-chip treatment, candidate markers for off-target effects, FIG. 4): show inhibition
SMILES: CNC(=O)c1cc(Oc2ccc(NC(=O)Nc3ccc(Cl)c(C(F)(F)F)c3)cc2)ccn1 [sorafinib, sorafenib]
